According to the supplement of paper PMC10307832:

Experiments:
Assay in all cases: relative viability (nuclei count vs DMSO), 5 days (fraction); higher = more cells survive
NCI-H460 = test system: NCI-H460
Outline: (§1)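 One day after seeding in 1536-well plates, lung cancer cell lines were dosed by pin tool. Dosing was either single-drug or a fixed anchor-drug dose plus five library-drug doses (not always all listed) in √10 steps. After 5 days, nuclei were stained in one fix-and-stain step and counted on 4× images, and relative viability is the nuclei count of treated wells over that of vehicle wells, given as the median of duplicate plates.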

COR-L 105 = test system: COR-L 105
Outline: as §1

LU99A = test system: LU99A
Outline: as §1

NCI-H1793 = test system: NCI-H1793
Outline: as §1

SW 900 = test system: SW 900
Outline: as §1

UMC-11 = test system: UMC-11
Outline: as §1

HOP-62 = test system: HOP-62
Outline: as §1

NCI-H358 = test system: NCI-H358
Outline: as §1

NCI-H2009 = test system: NCI-H2009
Outline: as §1

LXF-289 = test system: LXF-289
Outline: as §1

NCI-H1666 = test system: NCI-H1666
Outline: as §1

`O=c1cc(-c2cccc3c2Sc2ccccc2S3)oc(N2CCOCC2)c1` + COc1cccc2cc(-c3nc([C@H]4CC[C@H](C(=O)O)CC4)n4ncnc(N)c34)[nH]c12 [OSI-027] (partner 0.5 µM) showed a relative viability (NCI-H460; first compound 0.08 µM) of 0.605, a relative viability (NCI-H460; first compound 0.253 µM) of 0.994 and a relative viability (NCI-H460; first compound 0.8 µM) of 0.643. It also gave a relative viability (NCI-H460; first compound 2.53 µM) of 0.568, a relative viability (NCI-H460; first compound 8 µM) of 0.527 and a relative viability (COR-L 105; first compound 0.08 µM) of 0.686. The relative viability (COR-L 105; first compound 0.253 µM) was 0.707, the relative viability (COR-L 105; first compound 0.8 µM) was 0.636 and the relative viability (COR-L 105; first compound 2.53 µM) was 0.686. The relative viability (COR-L 105; first compound 8 µM) was 0.734, the relative viability (LU99A; first compound 0.08 µM) was 0.282 and the relative viability (LU99A; first compound 0.253 µM) was 0.285. It also gave a relative viability (LU99A; first compound 0.8 µM) of 0.308, a relative viability (LU99A; first compound 2.53 µM) of 0.335 and a relative viability (LU99A; first compound 8 µM) of 0.303. The relative viability (NCI-H1793; first compound 0.08 µM) was 0.227, the relative viability (NCI-H1793; first compound 0.253 µM) was 0.29 and the relative viability (NCI-H1793; first compound 0.8 µM) was 0.248. For the same compound, the relative viability (NCI-H1793; first compound 2.53 µM) was 0.227, the relative viability (NCI-H1793; first compound 8 µM) was 0.267 and the relative viability (SW 900; first compound 0.08 µM) was 0.573. For the same compound, the relative viability (SW 900; first compound 0.253 µM) was 0.697, the relative viability (SW 900; first compound 0.8 µM) was 0.459 and the relative viability (SW 900; first compound 2.53 µM) was 0.494. For the same compound, the relative viability (SW 900; first compound 8 µM) was 0.596, the relative viability (UMC-11; first compound 0.08 µM) was 0.546 and the relative viability (UMC-11; first compound 0.253 µM) was 0.562. The relative viability (UMC-11; first compound 0.8 µM) was 0.457, the relative viability (UMC-11; first compound 2.53 µM) was 0.429 and the relative viability (UMC-11; first compound 8 µM) was 0.514. For the same compound, the relative viability (HOP-62; first compound 0.08 µM) was 0.888, the relative viability (HOP-62; first compound 0.253 µM) was 1.17 and the relative viability (HOP-62; first compound 0.8 µM) was 0.913. It also gave a relative viability (HOP-62; first compound 2.53 µM) of 0.745, a relative viability (HOP-62; first compound 8 µM) of 1.07 and a relative viability (NCI-H358; first compound 0.08 µM) of 0.836. The relative viability (NCI-H358; first compound 0.253 µM) was 0.999, the relative viability (NCI-H358; first compound 0.8 µM) was 0.815 and the relative viability (NCI-H358; first compound 2.53 µM) was 0.807. For the same compound, the relative viability (NCI-H358; first compound 8 µM) was 0.869, the relative viability (NCI-H2009; first compound 0.08 µM) was 0.627 and the relative viability (NCI-H2009; first compound 0.253 µM) was 0.663. The relative viability (NCI-H2009; first compound 0.8 µM) was 0.734, the relative viability (NCI-H2009; first compound 2.53 µM) was 0.575 and the relative viability (NCI-H2009; first compound 8 µM) was 0.553. For the same compound, the relative viability (LXF-289; first compound 0.08 µM) was 0.812, the relative viability (LXF-289; first compound 0.253 µM) was 0.811 and the relative viability (LXF-289; first compound 0.8 µM) was 0.871. For the same compound, the relative viability (LXF-289; first compound 2.53 µM) was 0.697, the relative viability (LXF-289; first compound 8 µM) was 0.87 and the relative viability (NCI-H1666; first compound 0.08 µM) was 0.838. The relative viability (NCI-H1666; first compound 0.253 µM) was 1.06, the relative viability (NCI-H1666; first compound 0.8 µM) was 0.923 and the relative viability (NCI-H1666; first compound 2.53 µM) was 0.832. It also gave a relative viability (NCI-H1666; first compound 8 µM) of 0.885.
